Series [1] has as its target T1, dopamine transporter (DAT) (Homo sapiens, UniProt Q01959).
T1 construct: expressed in transfected cells; host or cells: HEK293 (HEK-DAT)
Kind of series: Substrate uptake inhibition in HEK-DAT cells. As to conditions: for inhibition of DAT and selectivity against SERT and NET: verbal summary of EC50 values. Format: cell-based. The protocol: (§1) The human isoforms of DAT, SERT and NET were expressed in HEK293 (HEK-DAT, HEK-SERT and HEK-NET) cells. DAT inhibitors-mediated monoamine transporter effects on substrate uptake were analyzed according to procedure described by Sitte et al. In brief, cells were grown in poly-d-lysine coated 96-well plates, incubated with compounds diluted in Krebs-Ringer-HEPES buffer, substrates were subsequently added, cells were lysed with 1% SDS (sodium dodecyl sulphate) and released radioactivity was measure by a liquid scintillation counter (23).
(§2) EC50-values for the dopamine transporter (DAT), the norepinephrine transporter (NET) and the serotonin transporter (SERT) were obtained: […]

The target of series [2] is T2, norepinephrine transporter (NET) (Homo sapiens, UniProt P23975).
T2 construct: expressed in transfected cells; host or cells: HEK293 (HEK-NET)
Kind of series: Substrate uptake inhibition in HEK-NET cells. Format: cell-based. As to conditions: human NET expressed in HEK293, substrate uptake. How it is done: as §1, §2

In series [3] the target is T3, serotonin transporter (SERT) (Homo sapiens, UniProt P31645).
T3 construct: expressed in transfected cells; host or cells: HEK293 (HEK-SERT)
Kind of series: Substrate uptake inhibition in HEK-SERT cells. Format: cell-based. Particulars: human SERT expressed in HEK293, substrate uptake. The protocol:
as §1, §2

A further series concerns Male Sprague Dawley rats. Kind of series: 12 arm radial arm maze (RAM), working memory errors. Format: in vivo, rat. Particulars: versus DMSO-injected counterparts. From the text:
One such animal model is the radial arm maze using rats and is given in detail in Timofeva O. et al., Brain Res. 1308 (2010) 147-152: Wenk G. et al.; The Journal of Neuroscience (2004) 8.5A.1-8.5A.12; Akoto M. et al.; The Journal of Neuroscience (2000)20 (189: 7116-7121: Levin E D et al.; Behavioral Brain Res. 208 (2010) 319-327. Li-Bo Z. et al.; Neuropharmacology 37, 1998) 323-330. Roegge, C S. et al.; Toxicological Sciences 57, 121-30 (2000).
Male Sprague Dawley rats were used for the studies aged between 12-14 weeks. Twelve rats per group were used for this study. All rats were obtained from Core Unit of Biomedical Research, Division of Laboratory Animal Science and Genetics, Medical University of Vienna and maintained in cages made of makrolon and filled with autoclaved woodchips and water in bottles was available ad libitum. The room was illuminated with artificial light at an intensity of about 200 lx in 2 m from 5 am to 7 pm. Radial arm maze (RAM) training was performed between 8:00 h and 13:00 h. […]
Before starting the training, rats were given two habituation sessions in which food was placed all over the maze and rats were allowed to explore the maze and consume the food for 5 minutes. […] An arm was baited only once and a repeated entry into a baited arm was counted as a working memory error, whereas any entry into an un-baited arm was recorded as a reference memory error. […]

The record followed here is patent US10221147B2, “Heterocyclic compounds with working memory enhancing activity” (Red Bull GmbH, priority 2014, dated 2019).

Structures are written as SMILES.

The melting point is the temperature, or range, at which the solid turns liquid. For orientation: EC50 means the concentration at which the effect is half-maximal. Read a high EC50 as weaker potency.

T1 sequence (Q01959 whole entry): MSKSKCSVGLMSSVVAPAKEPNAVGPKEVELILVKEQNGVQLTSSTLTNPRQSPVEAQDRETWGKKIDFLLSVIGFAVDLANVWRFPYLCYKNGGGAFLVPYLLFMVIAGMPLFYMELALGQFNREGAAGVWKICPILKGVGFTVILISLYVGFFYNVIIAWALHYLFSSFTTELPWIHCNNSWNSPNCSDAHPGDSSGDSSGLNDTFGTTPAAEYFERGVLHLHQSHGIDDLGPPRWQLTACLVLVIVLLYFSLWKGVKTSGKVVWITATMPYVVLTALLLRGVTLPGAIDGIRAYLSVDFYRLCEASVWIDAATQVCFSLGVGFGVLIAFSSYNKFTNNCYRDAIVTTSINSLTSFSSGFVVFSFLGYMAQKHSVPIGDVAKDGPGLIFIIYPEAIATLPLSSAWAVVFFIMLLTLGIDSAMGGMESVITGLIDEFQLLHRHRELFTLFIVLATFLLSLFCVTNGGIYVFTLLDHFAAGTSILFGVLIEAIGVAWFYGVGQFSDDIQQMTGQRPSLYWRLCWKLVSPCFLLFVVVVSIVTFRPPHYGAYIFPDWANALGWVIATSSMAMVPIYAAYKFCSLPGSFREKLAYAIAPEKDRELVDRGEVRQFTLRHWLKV
T3 sequence (P31645 whole entry): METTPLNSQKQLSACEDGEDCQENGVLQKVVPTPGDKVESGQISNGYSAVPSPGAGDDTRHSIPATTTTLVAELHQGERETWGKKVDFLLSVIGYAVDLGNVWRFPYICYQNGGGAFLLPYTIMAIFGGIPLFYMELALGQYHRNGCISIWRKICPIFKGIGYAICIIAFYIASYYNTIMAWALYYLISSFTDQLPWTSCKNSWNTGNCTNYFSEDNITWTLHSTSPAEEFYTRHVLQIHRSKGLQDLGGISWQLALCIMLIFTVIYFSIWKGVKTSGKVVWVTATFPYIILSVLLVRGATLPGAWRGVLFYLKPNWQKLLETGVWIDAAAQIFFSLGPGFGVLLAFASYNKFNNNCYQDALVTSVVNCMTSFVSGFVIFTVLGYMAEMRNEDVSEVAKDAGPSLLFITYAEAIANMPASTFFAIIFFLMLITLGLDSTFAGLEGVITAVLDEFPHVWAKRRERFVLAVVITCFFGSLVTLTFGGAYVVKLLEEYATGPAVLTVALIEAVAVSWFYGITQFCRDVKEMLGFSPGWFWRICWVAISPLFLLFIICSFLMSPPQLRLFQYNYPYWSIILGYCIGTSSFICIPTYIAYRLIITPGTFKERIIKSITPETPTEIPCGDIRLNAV
T2 sequence (P23975 whole entry): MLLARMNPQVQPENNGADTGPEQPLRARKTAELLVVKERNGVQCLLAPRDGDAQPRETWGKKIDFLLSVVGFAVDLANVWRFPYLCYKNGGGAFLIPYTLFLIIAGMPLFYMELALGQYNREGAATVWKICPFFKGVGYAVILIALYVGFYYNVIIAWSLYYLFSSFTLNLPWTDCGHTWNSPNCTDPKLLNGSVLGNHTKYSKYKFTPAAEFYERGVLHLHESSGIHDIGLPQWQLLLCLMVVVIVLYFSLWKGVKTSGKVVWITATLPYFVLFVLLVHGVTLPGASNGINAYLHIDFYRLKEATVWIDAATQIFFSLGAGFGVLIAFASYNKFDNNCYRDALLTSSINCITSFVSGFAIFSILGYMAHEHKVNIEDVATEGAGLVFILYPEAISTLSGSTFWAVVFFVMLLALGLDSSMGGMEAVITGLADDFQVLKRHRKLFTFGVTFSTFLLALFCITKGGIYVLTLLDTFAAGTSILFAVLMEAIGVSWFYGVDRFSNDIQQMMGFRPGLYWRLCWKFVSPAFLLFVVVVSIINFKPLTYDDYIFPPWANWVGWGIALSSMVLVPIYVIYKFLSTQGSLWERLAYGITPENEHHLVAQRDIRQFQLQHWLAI

Molecule `Cc1csc(C[S+]([O-])C(c2ccccc2)c2ccccc2)n1` (stereo not drawn) showed a melting point of 104 to 107 °C.

Take `[O-][S+](Cc1cscn1)C(c1ccccc1)c1ccccc1` (stereo not drawn) [4-(diphenylmethanesulfinylmethyl)-1,3-thiazole]: the EC50 in series [1] was 7.3 µM; in series [2], 547 µM; in series [3], 456 µM. The “inhibition of DAT and selectivity against SERT and NET” value in series [1] is “excellent inhibition and selectivity against SERT and NET”.

Consider `[O-][S+](Cc1csc(C2CC2)n1)C(c1ccccc1)c1ccccc1` (stereo not drawn) [4-(diphenylmethanesulfinylmethyl)-2-cyclopropyl-1,3-thiazole], for which the EC50 came out at 4.1 µM in series [1], 774 µM in series [2] and 436 µM in series [3]. Further, the “inhibition of DAT and selectivity against SERT and NET” value in series [1] was “excellent inhibition and selectivity against SERT and NET”.

Turning to `[O-][S+](Cc1nccs1)C(c1ccccc1)c1ccccc1` (stereo not drawn) [C1, 2-(diphenylmethanesulfinylmethyl}-1,3-thiazole], the melting point lay within 119 to 122 °C. The “performance in RAM training from day eight (working memory errors)” value with Male Sprague Dawley rats (day eight to ten, p<0.05) is “performed better”. Moreover, the “performance in RAM training up to day seven” value in the series on Male Sprague Dawley rats (up to day seven) is “comparable level”.
